Measured values from US8217000B2, “Method for elevating prolactin in mammals” (Cara Therapeutics, Inc., priority 2006, dated 2012).
Structures can show the parent of a compound that is named as a salt. Where two headings read alike, the source gives them in different places. Non-standard residues stand in square brackets, D forms with d. Residues, ends and D or L forms follow the SMILES beside them. *: point of attachment. NH(4-picolyl) = c1cc(CN*)ccn1; dNle = CCCC[C@@H](N)C(=O)O

Legend:
[1] = Safety and tolerability of ascending single IV doses in human subjects; type: in vivo
Source text: In each group, subjects received CR665 or placebo.
The condition of each subject was monitored throughout the study.
Subjects were also encouraged to spontaneously report adverse events occurring at any other time during the study. Any adverse events and remedial action required were to be recorded for each subject. The nature, time of onset, duration and severity were documented, together with the Project Physician's opinion of the relationship to drug administration.
The condition of the dosing cannula site for each subject was monitored for erythema, pruritus and swelling at the following times: Pre dose, 0.5, 1, 2 and 24 hours after the start of the infusion. Subjects were also encouraged to spontaneously report adverse events relating to the infusion site at any other time during the study. Any adverse events and observations relating to the infusion site and remedial action required were to be recorded for each subject. The nature, time of onset, duration, and severity were to be documented, together with the Project Physician's opinion of the relationship to drug administration.
Supine and standing blood pressure, supine pulse rate and oral body temperature were measured in duplicate at the following times: Day 1; Pre dose, 15 minutes (Part B only), 30 minutes, 55 minutes, 1.5, 2, 2.5, 3, 4, 8, 12, 24 and 48 hours after the start of the infusion (up to 24 hours only for Groups A1 to A4); and at Follow up visit. Supine vital signs only were measured during the infusion period. Pre dose blood pressure and pulse rate were measured in triplicate at approximately 2 minute intervals. The median value was used as the baseline value in the data analysis. All subsequent measurements were performed singly, but repeated in duplicate if outside the relevant clinical reference ranges. If repeated, the median of the three values were used in the data analysis. Blood pressure and pulse rate were measured using automated Critikon Dinamap™ PRO 400 monitors. Subjects were required to be supine for at least 5 minutes before blood pressure and pulse rate measurements. Standing blood pressure and pulse rate were then measured singly after the subject had been sitting for approximately 1 minute and then standing for approximately 2 minutes. Oral body temperature was measured singly using an Omron digital thermometer. To assess drug effects on cardiovascular function, a 12 lead resting ECG with a 10 second rhythm strip was recorded on a Marquette MAC5000 ECG machine at the following times, after the subject has been supine for at least 5 minutes: Day 1; Pre dose, 50 minutes, 2, 4, 8, 24 and 48 hours after the start of the infusion (up to 24 hours only for Groups A1 to A4); and at the follow up visit. The ECG machine computed the PR, QT and QTc intervals, QRS duration, and heart rate. The QT interval was corrected for heart rate (QTc) using Bazett's formula. For continuous ECG measurements, continuous cardiac Holter monitoring of each subject, using Reynolds Tracker II Holter monitors, was performed from 1 hour prior to until 4 hours after the start of the infusion. Blood and urine samples were collected, after at least a 6 hour fast, for clinical laboratory evaluations at the following times during the study: Pre dose and 24 hours after the start of the infusion; and at the follow up visit.
After collection of urine samples, following removal of the aliquots for drug assay and/or urinalysis, urine was pooled over the following time intervals: 24 to 0 hours and 0 to 24 hours after the start of the infusion. A 10 mL aliquot was removed from the each pooled collection for determination of urinary creatinine.
An assessment of fluid balance (made by comparison of volume of fluid consumed and volume of fluid excreted) was made over the following periods: 24 to 0 hours and 0 to 24 hours after the start of the infusion. During these periods, the volume of fluid consumed and the volume of urine excreted was recorded. […]

[2] = Urinary excretion of CR665 after single IV infusion in human subjects; type: in vivo; conditions: for CL renal / dose excreted: human; for CL renal: urine and plasma, read-out: CLR 0-24 h; for dose excreted / Ae0-24 h: urine; for dose excreted: iv
Procedure: The lower limit of quantification was 1 ng/mL.
Urine was collected into standard weight polyethylene containers over the following time intervals: Pre dose (−24 to 0), 0 to 4, 4 to 8, 8 to 12, 12 to 24 and 24 to 48 hours after the start of the infusion. During each collection period, the containers were stored in a refrigerator at 2 to 8° C. The weight (g) of each collection was recorded prior to removal of two sub samples (each approximately 4 mL) into suitably labeled polypropylene containers, which were stored within 2 hours of collection, at approximately −20° C. Additional aliquots (1×100 mL per collection period) were stored for possible future analyses. Any remaining urine from post dose collection intervals was pooled with the rest of the urine collected during the 0 to 24 hour collection period, for analysis of creatinine clearance. A nominal value for specific gravity of 1.018 was used to calculate urine volume.

Which results are given for `CCCC[C@@H](NC(=O)[C@@H](Cc1ccccc1)NC(=O)[C@H](N)Cc1ccccc1)C(=O)N[C@H](CCCNC(=N)N)C(=O)NCc1ccncc1` [CR665, D-phenylalanyl-D-phenylalanyl-D-norleucyl-N-(4-pyridinylmethyl)-D-argininamide, acetate salt] (H-[dF][dF][dNle][dR]-{NH(4-picolyl)})?
Fluid balance (urine excreted-fluid consumed) ([1]; 0 to 24 hour after start of infusion): no apparent treatment or dose related trends; 12-lead ECG evaluations ([1]; Parts A and B): no treatment related trends, significant clinical changes, or abnormalities in the morphology of the 12 lead ECG; Creatinine clearance estimated from serum creatinine ([1]; Parts A and B): no clinically important changes; Supine and standing blood pressure, pulse rate, oral body temperature ([1]; Parts A and B): no treatment or dose related trends; Severe or serious adverse events ([1]; all 54 subjects, all dose levels): no severe or serious adverse events; QTc interval (Bazett's and Friedericia's corrected) ([1]; each dose level, male and female subjects): no evidence of prolongation of QTc interval; CNS symptoms (hallucinations or dysphoria) ([1]; even at the highest dose levels): no signs of the more typical CNS symptoms; Volume of urine excreted compared to placebo ([1]; first 4 hours after start of infusion, each dose level, male and female, Parts A and B): increase; Clinical laboratory evaluations (serum biochemistry, hematology, urinalysis) ([1]; human, in vivo): no treatment related trends or significant clinical findings; Physical examination ([1]; human, in vivo): no treatment related findings; CL renal ([2]; female, females, 0.06 mg/kg, 5-minute IV infusion, geometric mean): 20.9 mL/min; CL renal ([2]; female, females, 0.24 mg/kg, 1 hour IV infusion, geometric mean): 16.8 mL/min; dose excreted ([2]; female, 0.06 mg/kg, females, 0.06 mg/kg, 5-minute IV infusion, geometric mean, read-out: fe0-24 h): 3.83%; dose excreted ([2]; female, 0.06 mg/kg, females, 5-minute infusion, read-out: Fraction of unchanged drug excreted in the urine): 3.8%; dose excreted ([2]; female, 0.06 mg/kg, females, 5-minute infusion, read-out: fe0-24 h, geometric least squares mean): 3.83%; dose excreted ([2]; female, 0.24 mg/kg, females, 0.24 mg/kg, 1 hour IV infusion, geometric mean, read-out: fe0-24 h): 3.02%; dose excreted ([2]; female, 0.24 mg/kg, females, 1-hour infusion, read-out: fe0-24 h, geometric least squares mean): 2.7%; fe0-24 h, ratio of geometric least squares means 5-minute:1-hour ([2]; females): 1.42; Ae0-24 h ([2]; females, 0.06 mg/kg, 5-minute IV infusion, geometric mean): 153 µg; Ae0-24 h ([2]; females, 0.24 mg/kg, 1 hour IV infusion, geometric mean): 446 µg; CL renal ([2]; male, males, 0.03 mg/kg, 5-minute IV infusion, geometric mean): 17.1 mL/min; CL renal ([2]; male, males, 0.06 mg/kg, 5-minute IV infusion, geometric mean): 18.4 mL/min; CL renal ([2]; male, males, 0.09 mg/kg, 5-minute IV infusion, geometric mean): 20.5 mL/min; CL renal ([2]; male, males, 0.24 mg/kg, 1 hour IV infusion, geometric mean): 22 mL/min; dose excreted ([2]; male, 0.03 mg/kg, males, 0.03 mg/kg, 5-minute IV infusion, geometric mean, read-out: fe0-24 h): 3.6%; dose excreted ([2]; male, 0.06 mg/kg, males, 0.06 mg/kg, 5-minute IV infusion, geometric mean, read-out: fe0-24 h): 3.33%; dose excreted ([2]; male, 0.09 mg/kg, males, 0.09 mg/kg, 5-minute IV infusion, geometric mean, read-out: fe0-24 h): 3.56%; dose excreted ([2]; male, 0.24 mg/kg, males, 0.24 mg/kg, 1 hour IV infusion, geometric mean, read-out: fe0-24 h): 3.5%; dose excreted ([2]; male, males, 1-hour infusion, Parts A & B, read-out: fe0-24 h, geometric least squares mean): 3.46%; dose excreted ([2]; male, males, 5-minute infusion, Parts A & B, read-out: fe0-24 h, geometric least squares mean): 3.48%; dose excreted ([2]; male, males, all dose levels, 5-minute infusion, up to 24 hours post-dose, read-out: Fraction of the dose excreted in the urine as unchanged drug): ~3.5%; fe0-24 h, ratio of geometric least squares means 5-minute:1-hour ([2]; males): 1.01; Ae0-24 h ([2]; males, 0.03 mg/kg, 5-minute IV infusion, geometric mean): 70.0 µg; Ae0-24 h ([2]; males, 0.06 mg/kg, 5-minute IV infusion, geometric mean): 157 µg; Ae0-24 h ([2]; males, 0.09 mg/kg, 5-minute IV infusion, geometric mean): 262 µg; Ae0-24 h ([2]; males, 0.24 mg/kg, 1 hour IV infusion, geometric mean): 631 µg
